According to patent US20240358889A1, “PEPTIDE-CONTAINING HYBRID HYDROGEL FOR BONE REGENERATION” (Ramot at Tel-Aviv University Ltd., priority 2022, published 2024):
Ends that are not written are not given here. * marks the point of attachment. Fmoc = O=C(OCC1c2ccccc2-c2ccccc21)*

Experiment: Rheological studies of the hydrogel (strain, frequency, shear rate, time sweep, step strain)
Assay type: physicochemical
Settings: fixed strain 0.1%, frequency 5 Hz, 37° C.

storage modulus G′: 4,708 Pa
Substance: Fmoc-Phe-Phe [FmocFF]
